# According to the supplement of paper PMC10307832:
# How the values were obtained:
# Assay in all cases: relative viability (nuclei count vs DMSO), 5 days (fraction); higher = more cells survive
# [1] = tested on: BEN
# Summary of the method: (§1)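 Nuclei were stained with Hoechst during a one-step fixation (final 0.05% Triton X-100, 1% formaldehyde, 1 ug/ml Hoechst) carried out 5 days after dosing, then counted on 4× images. The cells, lung cancer lines in 1536-well plates, had been dosed by pin tool the day after seeding with one drug alone or a fixed anchor-drug dose plus five library-drug doses (not always all listed) in √10 steps. Relative viability is the nuclei count in treated wells divided by that in vehicle wells, and each value is the median of duplicate plates.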
# [2] = tested on: EKVX
# Summary of the method: as §1
# [3] = tested on: HARA
# Summary of the method: as §1
# [4] = tested on: HCC-366
# Summary of the method: as §1
# [5] = tested on: HCC-827
# Summary of the method: as §1
# [6] = tested on: LOU-NH91
# Summary of the method: as §1
# [7] = tested on: NCI-H1355
# Summary of the method: as §1
# [8] = tested on: NCI-H1437
# Summary of the method: as §1
# [9] = tested on: NCI-H1734
# Summary of the method: as §1
# [10] = tested on: NCI-H1792
# Summary of the method: as §1
# [11] = tested on: NCI-H1993
# Summary of the method: as §1
# [12] = tested on: NCI-H2009
# Summary of the method: as §1
# [13] = tested on: NCI-H2087
# Summary of the method: as §1
# [14] = tested on: NCI-H2405
# Summary of the method: as §1
# [15] = tested on: NCI-H647
# Summary of the method: as §1
# [16] = tested on: NCI-H661
# Summary of the method: as §1
# [17] = tested on: SK-LU-1
# Summary of the method: as §1
smiles,measurement,setting,value
O=c1cc(-c2cccc3c2Sc2ccccc2S3)oc(N2CCOCC2)c1 + CC(C)C[C@H](NC(=O)[C@H](Cc1ccccc1)NC(=O)c1cnccn1)B(O)O [Bortezomib] (partner 0.002 µM),relative viability,[1]; first compound 0.08 µM,0.802
same,relative viability,[1]; first compound 0.253 µM,0.858
same,relative viability,[1]; first compound 0.8 µM,0.991
same,relative viability,[1]; first compound 2.53 µM,0.889
same,relative viability,[1]; first compound 8 µM,1.23
same,relative viability,[2]; first compound 0.08 µM,0.977
same,relative viability,[2]; first compound 0.253 µM,1.11
same,relative viability,[2]; first compound 0.8 µM,1.1
same,relative viability,[2]; first compound 2.53 µM,1.06
same,relative viability,[2]; first compound 8 µM,1.1
same,relative viability,[3]; first compound 0.08 µM,1.09
same,relative viability,[3]; first compound 0.253 µM,1.37
same,relative viability,[3]; first compound 0.8 µM,0.926
same,relative viability,[3]; first compound 2.53 µM,0.921
same,relative viability,[3]; first compound 8 µM,1.24
same,relative viability,[4]; first compound 0.08 µM,1.09
same,relative viability,[4]; first compound 0.253 µM,1.65
same,relative viability,[4]; first compound 0.8 µM,1.12
same,relative viability,[4]; first compound 2.53 µM,1.03
same,relative viability,[4]; first compound 8 µM,1.28
same,relative viability,[5]; first compound 0.08 µM,0.962
same,relative viability,[5]; first compound 0.253 µM,0.96
same,relative viability,[5]; first compound 0.8 µM,0.974
same,relative viability,[5]; first compound 2.53 µM,0.873
same,relative viability,[5]; first compound 8 µM,1.11
same,relative viability,[6]; first compound 0.08 µM,0.481
same,relative viability,[6]; first compound 0.253 µM,0.514
same,relative viability,[6]; first compound 0.8 µM,0.546
same,relative viability,[6]; first compound 2.53 µM,0.489
same,relative viability,[6]; first compound 8 µM,0.502
same,relative viability,[7]; first compound 0.08 µM,1.25
same,relative viability,[7]; first compound 0.253 µM,1.35
same,relative viability,[7]; first compound 0.8 µM,1.22
same,relative viability,[7]; first compound 2.53 µM,1.16
same,relative viability,[7]; first compound 8 µM,1.3
same,relative viability,[8]; first compound 0.08 µM,0.51
same,relative viability,[8]; first compound 0.253 µM,0.626
same,relative viability,[8]; first compound 0.8 µM,0.473
same,relative viability,[8]; first compound 2.53 µM,0.555
same,relative viability,[8]; first compound 8 µM,0.543
same,relative viability,[9]; first compound 0.08 µM,0.865
same,relative viability,[9]; first compound 0.253 µM,1.06
same,relative viability,[9]; first compound 0.8 µM,1.05
same,relative viability,[9]; first compound 2.53 µM,0.844
same,relative viability,[9]; first compound 8 µM,1.18
same,relative viability,[10]; first compound 0.253 µM,1.4
same,relative viability,[10]; first compound 0.8 µM,1.05
same,relative viability,[10]; first compound 2.53 µM,0.904
same,relative viability,[10]; first compound 8 µM,1.27
same,relative viability,[11]; first compound 0.08 µM,1.12
same,relative viability,[11]; first compound 0.253 µM,1.21
same,relative viability,[11]; first compound 0.8 µM,0.972
same,relative viability,[11]; first compound 2.53 µM,1.04
same,relative viability,[11]; first compound 8 µM,1.2
same,relative viability,[12]; first compound 0.08 µM,0.936
same,relative viability,[12]; first compound 0.253 µM,1.1
same,relative viability,[12]; first compound 0.8 µM,0.952
same,relative viability,[12]; first compound 2.53 µM,0.871
same,relative viability,[12]; first compound 8 µM,0.795
same,relative viability,[13]; first compound 0.08 µM,1.06
same,relative viability,[13]; first compound 0.253 µM,1.02
same,relative viability,[13]; first compound 0.8 µM,1.1
same,relative viability,[13]; first compound 2.53 µM,0.792
same,relative viability,[13]; first compound 8 µM,0.888
same,relative viability,[14]; first compound 0.08 µM,0.949
same,relative viability,[14]; first compound 0.253 µM,1.11
same,relative viability,[14]; first compound 0.8 µM,0.996
same,relative viability,[14]; first compound 2.53 µM,0.98
same,relative viability,[14]; first compound 8 µM,1.03
same,relative viability,[15]; first compound 0.08 µM,0.978
same,relative viability,[15]; first compound 0.253 µM,1.3
same,relative viability,[15]; first compound 0.8 µM,1.04
same,relative viability,[15]; first compound 2.53 µM,0.85
same,relative viability,[15]; first compound 8 µM,1.57
same,relative viability,[16]; first compound 0.08 µM,0.808
same,relative viability,[16]; first compound 0.253 µM,0.935
same,relative viability,[16]; first compound 0.8 µM,0.837
same,relative viability,[16]; first compound 2.53 µM,0.798
same,relative viability,[16]; first compound 8 µM,0.912
same,relative viability,[17]; first compound 0.08 µM,1.12
same,relative viability,[17]; first compound 0.253 µM,1.18
same,relative viability,[17]; first compound 0.8 µM,1.16
same,relative viability,[17]; first compound 2.53 µM,1.2
same,relative viability,[17]; first compound 8 µM,1.91
